Laboratory results from patent publication US20090074791A1, “Phenylisoquinoline and Phenylquinazoline Derivatives” (priority 2007, published 2009).

Biological target: T1, human PCaR (parathyroid Calcium receptor) (Homo sapiens, UniProt P41180)
T1 construct: expressed in transfected cells; host or cells: CCL39 fibroblasts (stably transfected)
T1 sequence (P41180 20-1078): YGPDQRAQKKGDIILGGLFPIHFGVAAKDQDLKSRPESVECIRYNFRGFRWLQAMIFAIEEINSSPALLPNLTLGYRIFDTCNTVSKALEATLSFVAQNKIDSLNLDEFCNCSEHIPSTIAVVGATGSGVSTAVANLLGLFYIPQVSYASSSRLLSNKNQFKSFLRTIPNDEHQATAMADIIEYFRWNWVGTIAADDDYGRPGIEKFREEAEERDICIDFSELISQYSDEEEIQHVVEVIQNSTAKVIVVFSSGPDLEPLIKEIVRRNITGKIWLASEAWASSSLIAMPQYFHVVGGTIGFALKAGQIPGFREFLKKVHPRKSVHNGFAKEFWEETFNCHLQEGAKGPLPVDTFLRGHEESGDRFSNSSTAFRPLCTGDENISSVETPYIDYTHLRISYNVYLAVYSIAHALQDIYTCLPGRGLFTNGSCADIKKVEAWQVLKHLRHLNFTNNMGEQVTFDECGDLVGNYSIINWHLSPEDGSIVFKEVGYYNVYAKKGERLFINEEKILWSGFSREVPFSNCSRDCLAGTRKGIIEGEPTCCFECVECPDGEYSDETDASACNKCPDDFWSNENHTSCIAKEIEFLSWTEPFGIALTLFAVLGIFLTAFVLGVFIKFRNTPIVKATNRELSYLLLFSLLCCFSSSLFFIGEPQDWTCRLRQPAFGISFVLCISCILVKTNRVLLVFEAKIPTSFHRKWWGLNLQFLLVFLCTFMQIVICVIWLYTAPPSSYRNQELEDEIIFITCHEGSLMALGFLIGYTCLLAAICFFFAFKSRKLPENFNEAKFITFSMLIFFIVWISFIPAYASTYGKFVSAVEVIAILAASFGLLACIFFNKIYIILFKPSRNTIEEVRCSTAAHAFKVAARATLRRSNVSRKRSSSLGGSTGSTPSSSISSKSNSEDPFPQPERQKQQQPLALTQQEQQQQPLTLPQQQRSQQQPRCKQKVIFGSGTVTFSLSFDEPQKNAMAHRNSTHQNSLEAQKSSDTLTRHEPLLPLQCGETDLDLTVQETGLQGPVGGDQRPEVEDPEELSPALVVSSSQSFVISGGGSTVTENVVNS
Assay: Intracellular free calcium assay: inhibition of calcium transients stimulated by extracellular calcium (antagonism at PCaR)
Assay type: cell-based
Conditions: CCL39 fibroblasts stably transfected with human PCaR; Fluo-3 AM; stimulated with calcium (2.5 mM final)
Protocol: A suitable and well validated assay to measure the anabolic effect on bone formation is the assay to detect intracellular free calcium, i.e. the method to determine antagonism at the parathyroid Calcium receptor (PCaR) consists in measuring the inhibition of intracellular calcium transients stimulated by extracellular calcium:
CCL39 fibroblasts stably transfected with human PCaR are seeded at 40'000 cells/well into 96-well Viewplates and incubated for 24 hours. Medium is then removed and replaced with fresh medium containing 2 μM Fluo-3 AM (Molecular Probes, Leiden, The Netherlands), In routine experiments, cells are incubated at 37° C., 5% CO2 for 1 h. Afterwards, plates are washed twice with mHBS and wells are refilled with 100 μl mHBS containing the test compounds. Incubation is continued at room temperature for 15 minutes. To record changes of intracellular free calcium, plates are transferred to fluorescence-imaging plate reader (Molecular Devices, Sunnyvale, Calif., USA). A baseline consisting in 5 measurements of 0.4 seconds each (laser excitation 488 nm) is recorded. Cells are then stimulated with calcium (2.5 mM final), and fluorescence changes recorded over a period of 3 minutes.

| IC50 [pM] | Structure (SMILES) |
| --- | --- |
| 260 | C#CCOc1ccc2nc(-c3nc4cc(C(=O)CCC)c(C)cc4n3C)nc(-c3ccc(C(C)C)cc3)c2c1 [Example 1, 1-{2-[4-(4-Isopropyl-phenyl)-6-prop-2-ynyloxy-quinazolin-2-yl]-1,6-dimethyl-1H-benzoimidazol-5-yl}-butan-1-one] |
| 930 | C#CCOc1ccc2nc(-c3nc4ccc(C#N)cc4[nH]3)nc(-c3ccc(C(C)C)cc3)c2c1 [Example 3, 2-[4-(4-Isopropyl-phenyl)-6-prop-2-ynyloxy-quinazolin-2-yl]-3H-benzoimidazole-5-carbonitrile] |
| 1100 | C#CCOc1ccc2nc(-c3nc4cc(F)ccc4n3C)nc(-c3ccc(C(C)C)cc3)c2c1 [Example 5, 2-(5-Fluoro-1-methyl-1H-benzoimidazol-2-yl)-4-(4-isopropyl-phenyl)-6-prop-2-ynyloxy-quinazoline] |
| 700 | C#CCOc1ccc2nc(-c3nc4cc(OC)ccc4n3C)nc(-c3ccc(C(C)C)cc3)c2c1 [Example 6, 4-(4-Isopropyl-phenyl)-2-(5-methoxy-1-methyl-1H-benzoimidazol-2-yl)-6-prop-2-ynyloxy-quinazoline] |
| 1500 | C#CCOc1ccc2nc(-c3nc4ccccc4n3C)nc(-c3ccc(C(C)C)cc3)c2c1 [Example 8, 4-(4-Isopropyl-phenyl)-2-(1-methyl-1H-benzoimidazol-2-yl)-6-prop-2-ynyloxy-quinazoline] |
| 950 | C#CCOc1ccc2nc(-c3nc4ccc(C(F)(F)F)cc4[nH]3)nc(-c3ccc(C(C)C)cc3)c2c1 [Example 14, 4-(4-Isopropyl-phenyl)-6-prop-2-ynyloxy-2-(6-trifluoromethyl-1H-benzoimidazol-2-yl)-quinazoline] |
| 960 | C#CCOc1ccc2nc(-c3nc4ccc(OC)cc4[nH]3)nc(-c3ccc(C(C)C)cc3)c2c1 [Example 15, 4-(4-Isopropyl-phenyl)-2-(6-methoxy-1H-benzoimidazol-2-yl)-6-prop-2-ynyloxy-quinazoline] |
| 530 | C#CCOc1ccc2nc(-c3nc4ccc(Cl)cc4[nH]3)nc(-c3ccc(C(C)C)cc3)c2c1 [Example 16, 2-(6-Chloro-1H-benzoimidazol-2-yl)-4-(4-isopropyl-phenyl)-6-prop-2-ynyloxy-quinazoline] |
| 740 | C#CCOc1ccc2nc(-c3nc4ccc(C(=O)OCC)cc4[nH]3)nc(-c3ccc(C(C)C)cc3)c2c1 [Example 17, 2-[4-(4-Isopropyl-phenyl)-6-prop-2-ynyloxy-quinazolin-2-yl]-3H-benzoimidazole-5-carboxylic acid ethyl ester] |
| 680 | C#CCOc1ccc2nc(-c3nc4ccc(C(=O)c5ccccc5)cc4[nH]3)nc(-c3ccc(C(C)C)cc3)c2c1 [Example 18, {2-[4-(4-isopropyl-phenyl)-6-prop-2-ynyloxy-quinazolin-2-yl]-3H-benzoimidazol-5-yl}phenyl-methanone] |
| 880 | C#CCOc1ccc2nc(-c3nc4ccc(Br)cc4[nH]3)nc(-c3ccc(C(C)C)cc3)c2c1 [Example 19, 2-(6-Bromo-1H-benzoimidazol-2-yl)-4-(4-isopropyl-phenyl)-6-prop-2-ynyloxy-quinazoline] |
| 1600 | C#CCOc1ccc2nc(-c3nc4ccc(F)cc4[nH]3)nc(-c3ccc(C(C)C)cc3)c2c1 [Example 20, 2-(6-Fluoro-1H-benzoimidazol-2-yl)-4-(4-isopropyl-phenyl)-6-prop-2-ynyloxy-quinazoline] |
| 1400 | C#CCOc1ccc2nc(-c3nc4cc(F)c(Cl)cc4[nH]3)nc(-c3ccc(C(C)C)cc3)c2c1 [Example 21, 2-(6-Chloro-5-fluoro-1H-benzoimidazol-2-yl)-4-(4-isopropyl-phenyl)-6-prop-2-ynyloxy-quinazoline] |
| 630 | C#CCOc1ccc2nc(-c3nc4cc(C(F)(F)F)ccc4n3C)nc(-c3ccc(C(C)C)cc3)c2c1 [Example 22, 4-(4-Isopropyl-phenyl)-2-(1-methyl-5-trifluoromethyl-1H-benzoimidazol-2-yl)-6-prop-2-ynyloxy-quinazoline] |
| 400 | C#CCOc1ccc2nc(-c3nc4cc(C(=O)OCC)ccc4n3C)nc(-c3ccc(C(C)C)cc3)c2c1 [Example 23, 2-[4-(4-Isopropyl-phenyl)-6-prop-2-ynyloxy-quinazolin-2-yl]-1-methyl-1H-benzoimidazole-5-carboxylic acid ethyl ester] |
| 1000 | C#CCOc1ccc2nc(-c3nc4cc(C(C)=O)ccc4n3C)nc(-c3ccc(C(C)C)cc3)c2c1 [Example 24, 1-{2-[4-(4-Isopropyl-phenyl)-6-prop-2-ynyloxy-quinazolin-2-yl]-1-methyl-1H-benzoimidazol-5-yl}ethanone] |
| 440 | C#CCOc1ccc2nc(-c3nc4cc(F)c(F)cc4[nH]3)nc(-c3ccc(C(C)C)cc3)c2c1 [Example 25, 2-(5,6-Difluoro-1H-benzoimidazol-2-yl)-4-(4-isopropyl-phenyl)-6-prop-2-ynyloxy-quinazoline] |
| 590 | C#CCOc1ccc2nc(-c3nc4cccc(C(C)=O)c4[nH]3)nc(-c3ccc(C(C)C)cc3)c2c1 [Example 26, 1-{2-[4-(4-Isopropyl-phenyl)-6-prop-2-ynyloxy-quinazolin-2-yl]-3H-benzoimidazol-4-yl}-ethanone] |
| 650 | C#CCOc1ccc2nc(-c3nc4ccc(C(=O)OCC)cc4n3C)nc(-c3ccc(C(C)C)cc3)c2c1 [Example 36, 2-[4-(4-Isopropyl-phenyl)-6-prop-2-ynyloxy-quinazolin-2-yl]-3-methyl-3H-benzoimidazole-5-carboxylic acid ethyl ester] |
